Seven compounds from patent US20220185832A1, “CD73 INHIBITORS” (BioArdis LLC, priority 2019, published 2022) can be followed below.

Structures are written as SMILES.

For assay [1], the target named is T1, Recombinant Human 5′-Nucleotidase (CD73) (Homo sapiens, UniProt P21589).
T1 construct: CHO derived CD73 (Trp27-Lys547), with a C-terminal 6-His tag; 6-His (C); purchased R&D 5795-EN; host or cells: CHO
T1 sequence (P21589 27-547): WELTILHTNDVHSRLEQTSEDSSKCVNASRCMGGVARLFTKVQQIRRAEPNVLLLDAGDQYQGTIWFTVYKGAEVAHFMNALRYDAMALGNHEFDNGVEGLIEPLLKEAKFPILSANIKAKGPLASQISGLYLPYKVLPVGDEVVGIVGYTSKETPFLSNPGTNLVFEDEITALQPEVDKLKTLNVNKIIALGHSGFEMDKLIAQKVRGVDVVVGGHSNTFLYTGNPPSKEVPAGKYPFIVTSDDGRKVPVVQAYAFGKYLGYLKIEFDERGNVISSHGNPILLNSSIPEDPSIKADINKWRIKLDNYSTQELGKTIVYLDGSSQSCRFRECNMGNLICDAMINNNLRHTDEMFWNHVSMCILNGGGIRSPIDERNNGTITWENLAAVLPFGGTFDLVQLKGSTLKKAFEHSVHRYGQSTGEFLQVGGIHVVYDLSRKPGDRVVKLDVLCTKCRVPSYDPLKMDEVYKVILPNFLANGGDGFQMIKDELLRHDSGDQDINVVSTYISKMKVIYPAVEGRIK
As to the kind of experiment: CD73 Enzyme Assay. It is filed as biochemical. The conditions noted are these: 0.5 nM human CD73, 30 μM AMP, PiColorLock phosphate detection, OD 635 nm; read-out: Potency (IC50). In short, it runs like this: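 CHO-derived human CD73 (Trp27-Lys547, C-terminal His tag; 0.5 nM) preincubated with compound 15 min at 25° C in Tris pH 7.5 with MgCl2 and Tween-20. Reaction with 30 μM AMP ran 20 min at 37° C; released phosphate read by malachite green at 635 nm, IC50 from 4-parameter logistic fit.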

Assay [2] concerns the target T2, Cell surface CD73 of U87 MG human glioblastoma cells (Homo sapiens, UniProt P21589).
T2 construct: Cell surface CD73 catalyzes the conversion of adenosine monophosphate (AMP) to adenosine and inorganic phosphate; endogenous in cells; host or cells: U87 MG human glioblastoma cells
T2 sequence (P21589 27-549): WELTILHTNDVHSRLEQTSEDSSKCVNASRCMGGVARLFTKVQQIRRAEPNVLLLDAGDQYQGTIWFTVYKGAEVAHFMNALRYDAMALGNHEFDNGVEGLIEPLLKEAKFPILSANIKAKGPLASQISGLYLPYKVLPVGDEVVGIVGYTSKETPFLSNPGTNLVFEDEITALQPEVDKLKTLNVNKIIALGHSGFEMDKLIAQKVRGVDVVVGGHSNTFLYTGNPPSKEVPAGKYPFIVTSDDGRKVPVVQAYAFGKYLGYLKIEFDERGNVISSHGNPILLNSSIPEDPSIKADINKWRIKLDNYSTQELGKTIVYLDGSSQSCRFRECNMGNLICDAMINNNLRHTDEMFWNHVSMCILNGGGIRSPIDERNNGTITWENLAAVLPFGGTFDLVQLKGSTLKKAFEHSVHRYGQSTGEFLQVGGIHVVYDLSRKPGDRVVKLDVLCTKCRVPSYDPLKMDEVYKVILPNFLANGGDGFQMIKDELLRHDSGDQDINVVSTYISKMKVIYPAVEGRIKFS
As to the kind of experiment: CD73 Cellular Assay. The following applies: 5000 cells per well, 30 μM AMP, PiColorLock phosphate detection in supernatant, read-out: Potency (IC50). It is filed as cell-based. The procedure:
Cell surface CD73 catalyzes the conversion of adenosine monophosphate (AMP) to adenosine and inorganic phosphate. U87 MG human glioblastoma cells express high level of CD73. Cells are treated with compounds in a 96-well assay plate and supernatants are collected into a 384-well detection plate. The concentration of inorganic phosphate (Pi) in the supernatants is determined using the phosphate detection reagent, PiColorLock™ (Innova Bioscience, Cat #303-0125) following the manufacturer's instructions.
Briefly, on the day of the assay, U87 MG cells were harvested and resuspended in assay buffer which consisted of 20 mM HEPES, pH=7.4, 137 mM NaCl, 5.4 mM KCl, 1.3 mM CaCl2, 4.2 mM NaHCO3 and 0.1% glucose. To test the effect of compounds on cellular CD73 enzymatic activity, 500 nL/well of compounds dissolved in DMSO were added to a 96-well TC-treated microplate (Corning #3599). Next, 80 μL/well of U87 MG cells in assay buffer were added to assay plate. After 30 minutes of incubation in an atmosphere of 5% CO2 at 37° C., 20 μL/well of 150 μM AMP (Adenosine 5′-monophosphate monohydrate, Sigma, Cat #01930) in assay buffer was added to assay plate. Final assay conditions consisted of 5000 cells per well in 0.5% DMSO and 30 μM AMP substrate. After 50 minutes of incubation in an atmosphere of 5% CO2 at 37° C., 50 μL/well of supernatant was transferred to the 384-well detection plate (Corning® NBSTM 384 well plates, Cat #3640). Meanwhile “Gold mix” was prepared shortly before use by adding 1/100 volume of accelerator to the PiColorLock™ Gold reagent. 12 μL/well of the “Gold mix” was added to detection plate containing 50 μL/well of supernatant and incubated at 25° C. for 5 minutes. 5 μL/well stabilizer was added to the detection plate and incubated at 25° C. for 30 minutes. The absorbance at 635 nm was measured on a Spark 10M instrument (TECAN).
The percent (%) inhibition at each concentration of a compound was calculated relative to the OD value in the Max and Min control wells contained within each assay plate. The Max control wells contained cells and substrate as 0% inhibition, and the Min control wells only contained cells as 100% inhibition. The concentrations and percent inhibition values for a test compound are plotted and the concentration of the compound required to achieve 50% inhibition (IC50) was determined with a four-parameter logistic dose response equation.

For `O=P(O)(O)CP(=O)(O)OC[C@H]1O[C@@H](c2ccc3c(NCCc4ccccc4)nc(Cl)nc3c2)[C@H](O)[C@@H]1O` [Compound 2, (((((2R,3S,4R,5S)-5-(2-chloro-4-(phenethylamino)quinazolin-7-yl)-3,4-dihydroxytetrahydrofuran-2-yl)methoxy)(hydroxy)phosphoryl)methyl)phosphonic acid], the half-maximal inhibitory concentration (IC50) is 10 to 99 nM in assay [1] and under 10 nM in assay [2].
On the same counts, the results for `O=P(O)(O)CP(=O)(O)OC[C@H]1O[C@@H](c2ccc3c(NC4CCCC4)nc(Cl)nc3c2)[C@H](O)[C@@H]1O` [Compound 4, (((((2R,3S,4R,5S)-5-(2-chloro-4-(cyclopentylamino)quinazolin-7-yl)-3,4-dihydroxytetrahydrofuran-2-yl)methoxy)(hydroxy)phosphoryl)methyl)phosphonic acid] are under 10 nM and under 10 nM.
On the same counts, the results for `O=P(O)(O)CP(=O)(O)OC[C@H]1O[C@@H](c2ccc3c(NC4CCc5ccccc54)nc(Cl)nc3c2)[C@H](O)[C@@H]1O` (stereo partly drawn) [Compound 25, [({[(2R,3S,4R,5S)-5-[2-chloro-4-(2,3-dihydro-1H-inden-1-ylamino)quinazolin-7-yl]-3,4-dihydroxyoxolan-2-yl]methoxy}(hydroxy)phosphoryl)methyl]phosphonic acid] are under 10 nM and under 10 nM.
As for `O=P(O)(O)CP(=O)(O)OC[C@H]1O[C@@H](c2ccc3c(NCC4CC4)nc(Cl)nc3c2)[C@H](O)[C@@H]1O` [Compound 9, (((((2R,3S,4R,5S)-5-(2-chloro-4-((cyclopropylmethyl)amino)quinazolin-7-yl)-3,4-dihydroxytetrahydrofuran-2-yl)methoxy)(hydroxy)phosphoryl)methyl)phosphonic acid], the IC50 in assay [1] was 10 to 99 nM; in assay [2], under 10 nM.
In the case of `O=P(O)(O)CP(=O)(O)OC[C@H]1O[C@@H](c2ccc3c(NC4CCCC4)ncnc3c2)[C@H](O)[C@@H]1O` [Compound 46, [({[(2R,3S,4R,5S)-5-[4-(cyclopentylamino)quinazolin-7-yl]-3,4-dihydroxyoxolan-2-yl]methoxy}(hydroxy)phosphoryl)methyl]phosphonic acid], the half-maximal inhibitory concentration (IC50) in assay [1] is under 10 nM; in assay [2], over 1000 nM.
On the same counts, the results for `Cc1nc(NCc2ccccc2)c2ccc([C@@H]3O[C@H](COP(=O)(O)CP(=O)(O)O)[C@@H](O)[C@H]3O)cc2n1` [Compound 17, (((((2R,3S,4R,5S)-5-(4-(benzylamino)-2-methylquinazolin-7-yl)-3,4-dihydroxytetrahydrofuran-2-yl)methoxy)(hydroxy)phosphoryl)methyl)phosphonic acid] are 10 to 99 nM and under 10 nM.
As to `O=P(O)(O)CP(=O)(O)OC[C@H]1O[C@@H](c2ccc3c(NCC4CCCC4)nc(Cl)nc3c2)[C@H](O)[C@@H]1O` [Compound 5, (((((2R,3S,4R,5S)-5-(2-chloro-4-((cyclopentylmethyl)amino)quinazolin-7-yl)-3,4-dihydroxytetrahydrofuran-2-yl)methoxy)(hydroxy)phosphoryl)methyl)phosphonic acid], the IC50 in assay [1] was 10 to 99 nM; in assay [2] it was under 10 nM.
